Experimental findings from US20240294572A1, “Antimicrobial Peptides” (priority 2021, published 2024) are described below.

Data set [1] deals with S. aureus USA300 LAC. As to the kind of experiment: Bacterial membrane permeation (propidium iodide). The class given is cell-based. The following applies: 12.5 μM. Here is the method:
The experiment was performed as described with minor modifications (Mishra, et al. (2019) Proc. Natl. Acad. Sci., 116:13517-13522). Serially diluted 10×peptides (10 μL each well) were created in 96-well microtiter plates. Propidium iodide (2 μL) at a fixed concentration of 20 μM was added to each well followed by 88 μL of the exponential phase S. aureus USA300 culture (a final OD600˜0.1 in TSB media or PBS). Both daptomycin (98%, TSZChem, MA) and rifamycin (98%, Alfa Aesar, MA) were used as controls. The plate was incubated at 37° C. with continuous shaking at 100 rpm in a FLUOstar® Omega (BMG LABTECH, NC) microplate reader. The samples fluorescence was read at every 5 minutes for 24 cycles with excitation and emission wavelengths of 584 and 620 nm, respectively. Plots were generated using average values from the experiments using GraphPad Prism 7.

Data set [2] can be described thus: In vivo toxicity. Set-up: species or system C57BL/6 mice. Here is the method:
Toxicity was assessed in female C57BL/6 mice by the intraperitoneal administration of increasing doses of the antimicrobial peptide C10-KR8d (10, 20, and 40 mg/kg) and a control group without peptide treatment. The animals were then observed for 5 days (twice a day). The number of moribund/dead animals for each of the doses was noted and plotted.
Mice were caged, fed, and environmentally adapted as described (Lakshmaia, et al. (2020) Proc. Natl. Acad. Sci., 117:19446-19454). All animal manipulations were performed in a class II laminar flow biological safety cabinet.

The test system of data set [3] is S. aureus USA300 LAC. In words: Neutropenic murine infection model, systemic efficacy. The following applies: 5 mg/kg i.p. single dose 2 hours post infection, versus untreated. The class given is in vivo, C57BL/6 mice. As for the experimental part:
Female C57BL/6 mice (6 weeks old) were purchased from Charles River. After environmental adaptation, mice were induced to be neutropenic by the administration of two doses of cyclophosphamide on Day 1 (150 mg/kg) and Day 4 (100 mg/kg). On Day 5, mice were infected with S. aureus USA300 (˜2×10^6 CFU per mouse) via intraperitoneal injection (i.p.) (Lakshmaia, et al. (2020) Proc. Natl. Acad. Sci., 117:19446-19454). For the treatment groups, mice were i.p. treated 2 hours post infection with peptides at a single dose of 5 mg/kg. This bacterial strain was able to disseminate to different organs 2 hours post infection (Lakshmaia, et al. (2020) Proc. Natl. Acad. Sci., 117:19446-19454). At the end of the experiments, all the animals were sacrificed according to institutional guidelines. Organs, including spleen, liver, lung, and kidney, were harvested, weighed, and placed in 1 mL of sterile PBS and stored on ice. Harvested organs were subsequently homogenized using an Omni Homogenizer. Proper dilutions were made to get countable colonies. The homogenates were plated onto blood agar plates and incubated overnight at 37° C. The CFU of each murine tissue was plotted as an individual point, and error bars represent the deviation within the experimental group. * indicates p<0.05, **p<0.01, ***p<0.001, and NS means no significance (determined by Mann-Whitney test).

Data set [4] deals with MCP-1, IL-17A, IL-10, TNF-α. As to the kind of experiment: Cytokine quantification in tissues surrounding catheters. The class given is in vivo, mice. The following applies: day 3 after peptide treatment. As for the experimental part:
The catheter-associated tissue homogenates/plasma samples stored at −80° C. were thawed to room temperature for the cytokines quantification using the BioLegend® individual mouse cytokine kit. The protocol for sample preparation and analysis was per the manufacturer manual. The samples were in duplicates with appropriate standards. The data are represented as mean±SD. Plots were generated using GraphPad prism 7, where * indicates p<0.05, **p<0.01, ***p<0.001, and NS means no significance (nonparametric, unpaired, Mann-Whitney test).

Non-standard residues stand in square brackets, D forms with d. Residues, ends and D or L forms follow the SMILES beside them. *: point of attachment. Decanoyl = CCCCCCCCCC(=O)*

For the compound `CCCCCCCCCC(=O)N[C@H](CCCCN)C(=O)N[C@H](CCCNC(=N)N)C(=O)N[C@@H](C(=O)N[C@H](Cc1c[nH]c2ccccc12)C(=O)N[C@H](CCC(N)=O)C(=O)N[C@H](CCCNC(=N)N)C(=O)N[C@@H](C(=O)N[C@H](CCCCN)C(N)=O)[C@H](C)CC)[C@H](C)CC` [Peptide C10-KR8d] (Decanoyl-[dK][dR][dI][dW][dQ][dR][dI][dK]-NH2), the “membrane permeation (propidium iodide fluorescence)” value in data set [1] is given as “able to permeate the membranes of S. aureus USA300 LAC”. In addition, the maximal tolerated dose (MTD) (in general, the highest dose tested that stayed within the study's limit of toxicity) at 5 days in data set [2] (female, C57BL/6, mouse, in vivo, ip, C57BL/6 mice, read-out: maximal tolerated dose (MTD)) is not below 20 mg/kg. In data set [2] (i.p. 40 mg/kg), the survival of mice result is given as “all mice died in a day”. For the same compound, the survival of mice result in data set [2] (i.p. 10 or 20 mg/kg, 5 days observation) is given as “all mice survived”. For the same compound, in data set [3], the “CFU decrease in mouse lung and liver” value was 0.5-1 log; the “CFU decrease in spleen and kidney” value was “not in spleen and kidney”. Further, in data set [4], the “level of IL-10 in surrounding tissues of catheters” value is listed as “decrease”, the “level of IL-17A in surrounding tissues of catheters” value is recorded as “up-regulation”, the “level of MCP-1/CCL2 in surrounding tissues of catheters” value was “up-regulation” and the “level of TNFα in surrounding tissues of catheters” value was “decrease”.
